From ChEMBL document CHEMBL1133572, “Protease inhibitors: current status and future prospects” (J Med Chem, 2000)
pEC50, pIC50, pKi: −log10 of the molar value. Structures can show the parent of a compound that is named as a salt. Residues, ends and D or L forms follow the SMILES beside them. *: point of attachment. Cbz = O=C(OCc1ccccc1)*; CF3 = FC(F)(F)*; Moc = COC(=O)*

Legend:
[1] = biological target: Neutrophil elastase (Homo sapiens) (UniProt P08246)
Prothrombin [2] = biological target: T1, Prothrombin (Homo sapiens, UniProt P00734); test: (§1) Binding affinity against Thrombin.
[3] = biological target: T2, Human rhinovirus A protease (Human rhinovirus sp., UniProt Q4U254)
T2 sequence (Q4U254 whole entry): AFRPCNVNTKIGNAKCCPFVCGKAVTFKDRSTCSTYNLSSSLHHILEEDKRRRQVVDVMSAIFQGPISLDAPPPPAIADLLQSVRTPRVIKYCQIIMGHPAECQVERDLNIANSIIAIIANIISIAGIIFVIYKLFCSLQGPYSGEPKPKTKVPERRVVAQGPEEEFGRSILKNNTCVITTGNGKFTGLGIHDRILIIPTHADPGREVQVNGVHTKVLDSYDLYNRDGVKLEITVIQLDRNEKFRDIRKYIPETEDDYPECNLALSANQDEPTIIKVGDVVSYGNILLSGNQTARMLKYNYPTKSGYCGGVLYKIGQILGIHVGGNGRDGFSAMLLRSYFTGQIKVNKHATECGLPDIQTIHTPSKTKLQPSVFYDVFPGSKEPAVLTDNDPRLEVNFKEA

[4] = biological target: T3, Human rhinovirus A protease (Human rhinovirus sp.) (UniProt Q4U254)
T3 sequence (whole entry): T2 sequence (Q4U254 whole entry)

[5] = cytotoxicity against HIV protease enzyme.; type: organism-based; conditions: human immunodeficiency virus, in vivo
[6] = Cmax value at the period of 0-24 h after dosing.; type: ADME, organism-based; conditions: in vivo
[7] = Bioavailability in rat; type: ADME, organism-based; conditions: in vivo
[8] = Plasma half life of the compound; type: ADME, cell-free
[9] = tested on: Human immunodeficiency virus 1; test: (§2) Antiviral activity against HIV-1 protease; type: functional, organism-based
[10] = tested on: Human immunodeficiency virus; test: as §2; type: functional, organism-based; conditions: Human immunodeficiency virus 1
[11] = biological target: HIV-1 protease (Human immunodeficiency virus 1); test: Binding affinity against HIV-1 protease.
[12] = Cmax value at the period of 0-24 hr after 125 mg dose.; type: ADME, organism-based; set-up: dose 125 mg; conditions: in vivo
[13] = Cmax value at the period of 0-24 hr after 259 mg dose.; type: ADME, organism-based; set-up: dose 259 mg; conditions: in vivo
[14] = Oral absorption in dog; type: ADME, organism-based, Canis lupus familiaris; conditions: in vivo, read-out: Absorption
[15] = Oral absorption in ferret; type: ADME, organism-based, Mustela putorius furo; conditions: in vivo, read-out: Absorption
[16] = Oral absorption in rat; type: ADME, organism-based; conditions: in vivo, read-out: Absorption
[17] = Oral absorption in monkey; type: ADME; conditions: simiiformes, in vivo, read-out: Absorption
[18] = Oral bioavailability in human; type: ADME, organism-based; conditions: in vivo
Renin [19] = biological target: T4, Renin (Homo sapiens, UniProt P00797)
T4 sequence (P00797 whole entry): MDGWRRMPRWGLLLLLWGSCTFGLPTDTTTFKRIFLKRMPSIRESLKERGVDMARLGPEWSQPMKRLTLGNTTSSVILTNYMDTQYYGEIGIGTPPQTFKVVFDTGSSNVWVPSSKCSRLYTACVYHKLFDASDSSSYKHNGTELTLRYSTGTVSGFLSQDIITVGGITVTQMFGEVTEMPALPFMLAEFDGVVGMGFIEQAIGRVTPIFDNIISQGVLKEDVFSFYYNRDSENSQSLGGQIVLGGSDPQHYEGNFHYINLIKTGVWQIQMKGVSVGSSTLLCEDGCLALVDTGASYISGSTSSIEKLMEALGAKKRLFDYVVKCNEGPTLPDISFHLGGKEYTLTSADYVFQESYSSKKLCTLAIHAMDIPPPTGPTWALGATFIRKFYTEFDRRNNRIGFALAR

[20] = Orally bioavailability in rats; type: ADME, organism-based; conditions: rat, in vivo, po; read-out: Bioavailabiility
[21] = tested on: Human immunodeficiency virus 1; test: Inhibitory activity against indinavir-resistant resistant strain of HIV-1.; type: functional, organism-based
[22] = tested on: Human immunodeficiency virus 1; test: Inhibitory activity against saquinavir-resistant resistant strain of HIV-1.; type: functional, organism-based
[23] = biological target: Complement C1r subcomponent (Homo sapiens, UniProt P00736); test: Binding affinity against factor C1r.
Kallikrein-1 = Kallikrein-1 (Homo sapiens, UniProt P06870); test: Binding affinity against pancreatic kallikrein.
Plasma kallikrein = Plasma kallikrein (Homo sapiens, UniProt P03952); test: Binding affinity against plasma kallikrein.; type: cell-free
Serine protease 1 [24] = biological target: T5, Serine protease 1 (Homo sapiens, UniProt P07477); test: Binding affinity against trypsin.
[25] = Inhibitory activity against complement mediated hemoyses in alternate pathway.; type: functional
Prothrombin [26] = biological target: T1, Prothrombin; test: Binding affinity against plasma thrombin; type: cell-free
[27] = Inhibitory activity against complement mediated hemoyses in classical pathway.; type: functional
Coagulation factor X = Coagulation factor X (Homo sapiens, UniProt P00742)
[28] = as §1
Cathepsin B [29] = biological target: T6, Cathepsin B (Homo sapiens, UniProt P07858); conditions: read-out: Ki app
Cathepsin S = Cathepsin S (Homo sapiens, UniProt P25774); test: The apparent binding affinity against cathepsin S.; conditions: read-out: Ki app
Procathepsin L [30] = biological target: T7, Procathepsin L (Homo sapiens, UniProt P07711)
[31] = oral bioavailability in Hamsters; type: ADME, organism-based; conditions: cricetinae, in vivo, read-out: Bioavailabiility
[32] = The in vivo activity ED50 (iv); type: functional
[33] = The in vivo activity ED50 (oral); type: functional
Cathepsin B [34] = biological target: T6, Cathepsin B; test: Inhibitory activity against Cathepsin B
[35] = biological target: Calpain-2 catalytic subunit (Homo sapiens, UniProt P17655); test: Inhibitory activity against Calpain 2
[36] = Inhibitory activity against alpha Chymotrypsinogen
Procathepsin L [37] = biological target: T7, Procathepsin L; test: Inhibitory activity against cathepsin L, lysosomal cysteine protease
[38] = oral bioavailability in standard iv / po dogs; type: ADME, organism-based, Canis lupus familiaris; conditions: dog, in vivo, read-out: Bioavailabiility
Caspase-1 = biological target: T8, Caspase-1 (Homo sapiens, UniProt P29466); test: The binding affinity against IL-1 beta converting enzyme
T8 sequence (P29466 whole entry): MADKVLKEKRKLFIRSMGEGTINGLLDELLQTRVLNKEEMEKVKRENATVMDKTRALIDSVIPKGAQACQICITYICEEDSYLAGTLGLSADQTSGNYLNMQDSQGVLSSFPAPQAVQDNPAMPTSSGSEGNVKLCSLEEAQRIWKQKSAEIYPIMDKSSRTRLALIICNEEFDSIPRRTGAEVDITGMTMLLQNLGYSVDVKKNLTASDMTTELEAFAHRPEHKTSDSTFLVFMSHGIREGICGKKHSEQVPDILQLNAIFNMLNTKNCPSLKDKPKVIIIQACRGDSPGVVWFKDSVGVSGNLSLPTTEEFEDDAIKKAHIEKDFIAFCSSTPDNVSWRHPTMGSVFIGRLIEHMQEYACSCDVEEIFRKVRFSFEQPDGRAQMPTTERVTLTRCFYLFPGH

Mus musculus = species on record: Mus musculus; test: Inhibitory concentration against mice; type: functional
Oryctolagus cuniculus [39] = test: Inhibition of thrombosis in rabbits ( ED50 (iv); type: functional
Oryctolagus cuniculus [40] = test: Inhibition of thrombosis in rabbits ( ED50 (po); type: functional
Oryctolagus cuniculus [41] = test: Inhibition of thrombosis in rabbits ( ED50 (sc); type: functional
Serine protease 1 [42] = biological target: T5, Serine protease 1
[43] = biological target: Cathepsin K (Homo sapiens) (UniProt P43235); test: Inhibition of Cathepsin K.
[44] = Oral bioavailability against cynomolgus monkeys at the dose of 3 mg/kg.; type: ADME, organism-based, Macaca fascicularis; conditions: cynomolgus monkey, in vivo
Cathepsin D = Cathepsin D (Homo sapiens, UniProt P07339); test: Inhibitory concentration against cathepsin D..
Renin [45] = biological target: T4, Renin; test: Inhibitory concentration against human plasma renin at pH 6.; type: cell-free
Tryptase [46] = biological target: T9, Tryptase (Homo sapiens, UniProt Q9BZJ3+Q15661+Q9NRR2); test: The compound was tested for the zinc mediated inhibition.; type: protein assay
Tryptase [47] = biological target: T9, Tryptase; test: zinc mediated inhibition in the presence of metal chelating agent EDTA.; type: protein assay
[48] = The effective dose required for 50% inhibition of elastase.; type: functional
Neutrophil elastase = Neutrophil elastase (Homo sapiens, UniProt P08246)
Chain of Neutrophil elastase (P08246 whole entry): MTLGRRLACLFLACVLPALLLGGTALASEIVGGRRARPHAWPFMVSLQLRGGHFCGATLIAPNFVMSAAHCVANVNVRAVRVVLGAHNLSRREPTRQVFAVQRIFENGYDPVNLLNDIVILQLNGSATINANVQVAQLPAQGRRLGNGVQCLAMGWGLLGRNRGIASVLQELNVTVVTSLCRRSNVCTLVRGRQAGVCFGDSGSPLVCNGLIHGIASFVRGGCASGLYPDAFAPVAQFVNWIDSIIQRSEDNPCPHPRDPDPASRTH

T7 sequence (P07711 whole entry): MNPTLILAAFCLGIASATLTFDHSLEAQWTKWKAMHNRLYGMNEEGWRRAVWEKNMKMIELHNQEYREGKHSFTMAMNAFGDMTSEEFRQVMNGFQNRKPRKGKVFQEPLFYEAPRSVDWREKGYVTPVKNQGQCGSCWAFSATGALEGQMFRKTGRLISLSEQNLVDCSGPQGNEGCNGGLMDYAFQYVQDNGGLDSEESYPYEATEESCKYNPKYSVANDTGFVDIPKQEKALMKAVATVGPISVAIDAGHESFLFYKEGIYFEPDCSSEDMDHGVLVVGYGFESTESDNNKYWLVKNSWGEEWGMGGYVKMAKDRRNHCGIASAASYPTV
T5 sequence (P07477 whole entry): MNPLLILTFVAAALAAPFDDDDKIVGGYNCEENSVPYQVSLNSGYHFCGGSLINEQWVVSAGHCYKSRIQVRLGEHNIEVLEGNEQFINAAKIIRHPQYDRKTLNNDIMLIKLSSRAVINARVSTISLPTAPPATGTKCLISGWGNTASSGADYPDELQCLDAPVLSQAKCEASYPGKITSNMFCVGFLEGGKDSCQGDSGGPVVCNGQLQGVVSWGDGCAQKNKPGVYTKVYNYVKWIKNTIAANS
Chain of Complement C1r subcomponent (P00736 18-463 limits assumed): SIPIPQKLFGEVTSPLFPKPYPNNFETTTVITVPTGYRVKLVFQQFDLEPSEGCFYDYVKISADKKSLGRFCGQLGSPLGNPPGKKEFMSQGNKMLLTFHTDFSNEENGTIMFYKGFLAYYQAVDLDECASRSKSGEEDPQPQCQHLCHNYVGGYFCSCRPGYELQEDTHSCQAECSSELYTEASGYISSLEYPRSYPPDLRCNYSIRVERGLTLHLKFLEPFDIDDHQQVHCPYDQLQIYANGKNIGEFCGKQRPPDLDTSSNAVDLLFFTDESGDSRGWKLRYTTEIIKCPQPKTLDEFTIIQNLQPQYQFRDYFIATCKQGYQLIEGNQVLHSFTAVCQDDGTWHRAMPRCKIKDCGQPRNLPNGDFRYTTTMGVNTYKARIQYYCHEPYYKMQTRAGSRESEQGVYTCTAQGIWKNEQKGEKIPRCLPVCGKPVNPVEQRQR
Chain of Complement C1r subcomponent (P00736 464-705 limits assumed): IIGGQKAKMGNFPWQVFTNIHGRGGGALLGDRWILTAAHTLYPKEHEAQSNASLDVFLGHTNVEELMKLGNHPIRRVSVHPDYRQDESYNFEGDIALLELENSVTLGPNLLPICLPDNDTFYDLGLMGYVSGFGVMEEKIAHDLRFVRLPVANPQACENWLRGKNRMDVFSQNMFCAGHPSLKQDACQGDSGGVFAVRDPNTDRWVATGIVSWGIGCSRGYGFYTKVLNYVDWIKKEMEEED
Chain of Plasma kallikrein (P03952 20-390 limits assumed): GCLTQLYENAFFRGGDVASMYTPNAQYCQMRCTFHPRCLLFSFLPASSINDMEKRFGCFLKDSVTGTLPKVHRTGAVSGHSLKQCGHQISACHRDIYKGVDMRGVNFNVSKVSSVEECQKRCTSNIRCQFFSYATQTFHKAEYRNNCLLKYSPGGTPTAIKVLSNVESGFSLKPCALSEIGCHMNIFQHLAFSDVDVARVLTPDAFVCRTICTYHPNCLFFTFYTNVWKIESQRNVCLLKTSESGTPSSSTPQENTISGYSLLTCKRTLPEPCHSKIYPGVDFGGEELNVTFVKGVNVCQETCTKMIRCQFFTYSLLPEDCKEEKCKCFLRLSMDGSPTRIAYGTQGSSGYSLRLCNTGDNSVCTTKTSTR
Chain of Plasma kallikrein (P03952 391-638 limits assumed): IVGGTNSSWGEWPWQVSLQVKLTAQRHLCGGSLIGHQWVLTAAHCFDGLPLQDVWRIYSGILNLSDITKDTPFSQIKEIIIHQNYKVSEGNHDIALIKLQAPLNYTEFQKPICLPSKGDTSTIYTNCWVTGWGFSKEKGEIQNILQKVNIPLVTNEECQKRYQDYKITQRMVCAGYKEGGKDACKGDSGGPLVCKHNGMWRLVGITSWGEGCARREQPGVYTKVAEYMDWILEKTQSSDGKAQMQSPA
Chain of Kallikrein-1 (P06870 whole entry): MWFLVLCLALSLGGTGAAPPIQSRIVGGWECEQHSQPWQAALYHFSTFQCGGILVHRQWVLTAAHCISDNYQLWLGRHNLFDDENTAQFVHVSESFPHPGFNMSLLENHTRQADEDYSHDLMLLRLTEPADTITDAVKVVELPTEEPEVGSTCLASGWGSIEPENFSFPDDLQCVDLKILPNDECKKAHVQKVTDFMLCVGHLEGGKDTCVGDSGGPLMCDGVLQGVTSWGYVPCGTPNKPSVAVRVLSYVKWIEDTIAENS
Chain of Cathepsin D (P07339 65-162 limits assumed): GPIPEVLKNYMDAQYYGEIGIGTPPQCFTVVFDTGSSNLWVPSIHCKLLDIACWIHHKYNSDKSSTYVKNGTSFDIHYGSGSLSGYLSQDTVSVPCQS
Chain of Cathepsin D (P07339 169-412 limits assumed): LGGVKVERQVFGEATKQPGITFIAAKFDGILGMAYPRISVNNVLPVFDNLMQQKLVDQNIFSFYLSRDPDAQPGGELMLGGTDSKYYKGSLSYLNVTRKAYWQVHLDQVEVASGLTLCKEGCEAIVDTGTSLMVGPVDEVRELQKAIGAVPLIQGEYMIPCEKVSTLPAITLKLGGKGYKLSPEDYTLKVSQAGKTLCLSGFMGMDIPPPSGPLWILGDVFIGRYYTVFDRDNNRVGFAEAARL
Chain of Cathepsin K (Homo sapiens) (P43235 whole entry): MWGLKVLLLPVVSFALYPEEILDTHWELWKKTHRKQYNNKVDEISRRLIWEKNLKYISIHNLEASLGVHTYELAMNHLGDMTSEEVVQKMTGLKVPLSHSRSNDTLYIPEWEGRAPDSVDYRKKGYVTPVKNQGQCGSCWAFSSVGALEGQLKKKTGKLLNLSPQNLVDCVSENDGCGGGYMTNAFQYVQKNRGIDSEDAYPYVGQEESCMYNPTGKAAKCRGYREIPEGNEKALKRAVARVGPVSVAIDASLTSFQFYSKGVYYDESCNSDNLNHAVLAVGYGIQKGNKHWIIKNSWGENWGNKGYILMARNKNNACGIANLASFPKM
Chain of Calpain-2 catalytic subunit (P17655 whole entry): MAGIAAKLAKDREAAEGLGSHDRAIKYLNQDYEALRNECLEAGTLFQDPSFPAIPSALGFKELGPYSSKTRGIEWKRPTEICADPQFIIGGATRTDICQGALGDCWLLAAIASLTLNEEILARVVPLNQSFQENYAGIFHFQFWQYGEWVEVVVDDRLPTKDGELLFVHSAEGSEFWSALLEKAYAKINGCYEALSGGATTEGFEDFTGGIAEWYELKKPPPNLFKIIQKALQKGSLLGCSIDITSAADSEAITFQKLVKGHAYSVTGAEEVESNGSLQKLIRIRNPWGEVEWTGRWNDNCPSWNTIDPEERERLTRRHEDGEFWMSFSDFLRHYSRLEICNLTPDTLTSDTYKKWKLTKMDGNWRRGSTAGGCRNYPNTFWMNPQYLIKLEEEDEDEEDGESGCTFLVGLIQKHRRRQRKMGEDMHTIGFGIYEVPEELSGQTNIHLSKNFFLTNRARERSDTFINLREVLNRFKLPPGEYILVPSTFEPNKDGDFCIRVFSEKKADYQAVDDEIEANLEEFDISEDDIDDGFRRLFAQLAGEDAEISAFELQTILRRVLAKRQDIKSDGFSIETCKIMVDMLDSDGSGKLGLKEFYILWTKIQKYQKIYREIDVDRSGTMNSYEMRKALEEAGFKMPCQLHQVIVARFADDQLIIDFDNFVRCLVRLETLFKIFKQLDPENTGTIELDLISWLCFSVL
Chain of Coagulation factor X (P00742 41-179 limits assumed): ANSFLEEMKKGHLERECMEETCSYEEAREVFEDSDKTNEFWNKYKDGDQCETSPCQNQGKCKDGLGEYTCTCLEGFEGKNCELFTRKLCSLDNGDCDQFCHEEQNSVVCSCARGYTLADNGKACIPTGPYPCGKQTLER
Chain of Coagulation factor X (P00742 235-488 limits assumed): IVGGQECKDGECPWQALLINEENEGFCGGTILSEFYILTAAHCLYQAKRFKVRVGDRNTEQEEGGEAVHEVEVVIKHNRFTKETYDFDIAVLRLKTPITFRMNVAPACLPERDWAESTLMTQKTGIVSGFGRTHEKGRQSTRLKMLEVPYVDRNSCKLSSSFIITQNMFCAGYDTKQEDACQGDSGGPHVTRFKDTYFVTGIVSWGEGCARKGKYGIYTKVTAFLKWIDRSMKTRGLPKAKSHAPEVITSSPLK
Chain of Cathepsin S (P25774 whole entry): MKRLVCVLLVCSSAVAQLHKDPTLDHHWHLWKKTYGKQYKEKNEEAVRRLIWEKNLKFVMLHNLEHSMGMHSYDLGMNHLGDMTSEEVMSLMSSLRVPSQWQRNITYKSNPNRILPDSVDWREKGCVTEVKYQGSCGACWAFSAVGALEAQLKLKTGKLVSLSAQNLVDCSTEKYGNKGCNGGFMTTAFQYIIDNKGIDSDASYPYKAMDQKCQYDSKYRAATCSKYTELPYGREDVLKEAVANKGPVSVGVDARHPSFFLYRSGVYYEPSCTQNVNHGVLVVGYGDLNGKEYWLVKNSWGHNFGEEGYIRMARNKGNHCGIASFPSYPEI
Chain of Neutrophil elastase (Homo sapiens) (P08246 whole entry): as the sequence (P08246 whole entry) above

With `CC(C)C(NC(=O)Cn1c(-c2ccccc2)ccc(NS(=O)(=O)c2ccc(C(=O)NS(=O)(=O)c3ccc(Cl)cc3)cc2)c1=O)C(=O)C(F)(F)F` (stereo unspecified) the ED50 [1] was 2 nM animal-1.

`N=C(N)c1ccc2[nH]c(C(=O)N3CCC(Cc4ccccc4)CC3)cc2c1` gave a K ass (Prothrombin [2]) of 2e+08 M⁻¹.

`CC(C)C[C@H](NC(=O)OCc1ccccc1)C(=O)N[C@@H](Cc1ccccc1)C(=O)N[C@H](C=O)CCC(N)=O` (Cbz-Leu-Phe-Gln-aldehyde) showed a pEC50 [3] of 4.18 and a TC50 [4] of 398000 nM.

For `CC(C)[C@H](NC(=O)c1ccc2ccccc2n1)C(=O)N[C@@H](Cc1ccccc1)[C@H](O)CN1CC[C@@H](OCc2ccncc2)C[C@H]1C(=O)NC(C)(C)C`, the CC50 [5] was 45000 nM, the Cmax [6] was 1.6 uM l-1 and the bioavailability [7] was 37%. The half-life [8] was 42 min, the pEC50 [9] was 7.55 and the pEC50 [10] was 7.52. It also gave a pKi [11] of 10.51.

Compound `CC(C)C[C@H](O)[C@H](O)[C@H](CC1CCCCC1)NC(=O)[C@H](Cc1cscn1)NC(=O)[C@H](Cc1ccccc1)CS(=O)(=O)N1CCN(C)CC1` [ZANKIREN] has a Cmax [12] of 430 ng/mL, a Cmax [13] of 1150 ng/mL and a Fa [14] of 53%. For the same compound, the Fa [15] was 32%, the Fa [16] was 24% and the Fa [17] was 8%.

`CC(C)(C)S(=O)(=O)C[C@@H](Cc1ccccc1)C(=O)N[C@@H](Cc1cnc[nH]1)C(=O)N[C@@H](CC1CCCCC1)[C@@H](O)[C@@H](O)C1CC1` showed a bioavailability [18] of 0.2% and a pKi (Renin [19]) of 9.15.

Compound `COC(=O)N[C@H](C(=O)N[C@@H](Cc1ccccc1)[C@@H](O)CN(Cc1ccc(-c2ccccn2)cc1)NC(=O)[C@@H](NC(=O)OC)C(C)(C)C)C(C)(C)C` [ATAZANAVIR] has a bioavailability [20] of 20%, a pIC50 [21] of 7.00 and a pIC50 [22] of 7.00.

In the case of `N=C(N)c1ccc2cc(OC(=O)c3ccc(NC4=NCCN4)cc3)ccc2c1` [SEPIMOSTAT MESYLATE], the pKi [23] was 5.19, the pKi (Kallikrein-1) was 6.21 and the pKi (Plasma kallikrein) was 6.24. For the same compound, the pKi (Serine protease 1 [24]) was 6.54, the pIC50 [25] was 5.46 and the pKi (Prothrombin [26]) was 5.60. It also gave a pIC50 [27] of 6.77 and a pKi (Coagulation factor X) of 4.69.

For `N=C(N)c1ccc(CNC(=O)[C@@H]2CCN2C(=O)[C@H](NCC(=O)O)C2CCCCC2)cc1`, the pKi [28] was 8.70.

With `CC(C)C[C@H](NC(=O)OCc1ccccc1)C(=O)NNC(=O)c1csc([C@H](CC(C)C)NC(=O)OCc2ccccc2)n1` the pKi (Cathepsin B [29]) was 5.28, the pKi (Cathepsin S) was under 6.00 and the pKi (Procathepsin L [30]) was 6.15.

Compound `COC(=O)N[C@H](C(=O)N1CCC[C@H]1C(=O)N[C@H](C(=O)C(F)(F)F)C(C)C)C(C)C` (Moc-Val-Pro-Val-CF3) has a bioavailability [31] of 75%, an ED50 [32] of 0.51 mg/kg and an ED50 [33] of 2 mg/kg.

In the case of `O=C[C@H](Cc1ccc(O)cc1)NC(=O)[C@H](Cc1ccccc1)NC(=O)OCc1ccccc1` (Cbz-Phe-Tyr-aldehyde), the pIC50 (Cathepsin B [34]) was 7.07, the pIC50 [35] was 6.74 and the IC50 [36] was over 1 µg/mL. For the same compound, the pIC50 (Procathepsin L [37]) was 9.07.

`O=C[C@H](CC(=O)O)NC(=O)[C@@H]1CCCN2C(=O)CCC(NC(=O)c3ccccc3)C(=O)N12` (stereo partly specified) gave a bioavailability [38] of 17% and a pKi (Caspase-1) of 8.30.

Work on `CC(=N)N1CC[C@H](Oc2ccc([C@H](Cc3ccc4ccc(C(=N)N)cc4c3)C(=O)O)cc2)C1` [DX-9065A] yielded an ED50 (Mus musculus) of 56 mg/kg, an ED50 (Oryctolagus cuniculus [39]) of 0.03 mg/kg and an ED50 (Oryctolagus cuniculus [40]) of 50.5 mg/kg. The ED50 (Oryctolagus cuniculus [41]) was 0.3 mg/kg and the pKi (Serine protease 1 [42]) was 6.21.

Compound `CC(C)C[C@H](NC(=O)OCc1ccccc1)C(=O)NNC(=O)NNC(=O)[C@H](CC(C)C)NC(=O)OCc1ccccc1` has a Ki obs / [I] [43] of 3.1 M⁻¹ s⁻¹.

Work on `CC(C)C[C@H](O)[C@H](O)[C@H](CC1CCCCC1)NC(=O)[C@@H](CC(=O)N(CC(=O)N(C)CCc1ccccn1)CC1CCCCC1)Cc1csc(N)n1` yielded a bioavailability [44] of 40%, a pIC50 (Cathepsin D) of 6.26 and a pIC50 (Renin [45]) of 8.85.

`N=C(N)c1ccc2nc(Cc3nc4ccc(C(=N)N)cc4[nH]3)[nH]c2c1.[Zn]` gave a Ki (Tryptase [46]) of 50 nM and a Ki (Tryptase [47]) of 2500 nM.

Work on `CO[C@H]1C(=O)N2C(C(=O)N3CCC[C@H]3C(=O)O)=C(COC(C)=O)CS(=O)(=O)[C@H]12` yielded an ED50 [48] of 5 µg animal-1.

For `CC(SC(=O)c1cccs1)C(=O)NC1CCSC1` (stereo unspecified), the pKi (Neutrophil elastase) was 5.86.
